Experimental data taken from ChEMBL document CHEMBL1949562, “Triterpenes possessing an unprecedented skeleton isolated from hydrolyzate of total saponins from Gynostemma pentaphyllum” (Eur J Med Chem, 2012).

Columns and labels:
[1] = Cytotoxicity against human Hep3B cells after 72 hrs by MTT assay; assay type: functional, cell-based, Hep 3B2
[2] = Cytotoxicity against human U87 cells after 72 hrs by MTT assay; assay type: functional, cell-based, U-87MG ATCC; conditions: U-87 MG
[3] = test system: A549; assay: Cytotoxicity against human A549 cells after 72 hrs by MTT assay; assay type: functional, cell-based; conditions: A549, 72 h

Structure (SMILES) | IC50 [1] [µM] | IC50 [2] [µM] | IC50 [3] [µM]
CC(C)=CCC[C@](C)(O)[C@H]1CC[C@]2(C)[C@@H]1[C@H](O)C[C@@H]1[C@@]3(C)CC[C@H](O)C(C)(C)[C@@H]3CC[C@]12C | 14.7 | 36.7 | –
CC(C)=C[C@H]1C=C([C@H]2CC[C@]3(C)[C@@H]2CC[C@@H]2[C@@]4(C)CC[C@H](O[C@@H]5O[C@H](CO)[C@@H](O)[C@H](O)[C@H]5O)C(C)(C)[C@@H]4CC[C@]23C)C(=O)O1 | > 100 | > 100 | > 100
COc1cc([C@@H]2c3cc4c(cc3[C@@H](O[C@@H]3O[C@@H]5CO[C@@H](C)O[C@H]5[C@H](O)[C@H]3O)[C@H]3COC(=O)[C@H]23)OCO4)cc(OC)c1O [ETOPOSIDE] | 6.7 | 12.4 | 23.8
CC(C)=C1CC([C@H]2CC[C@]3(C)[C@@H]2CC[C@@H]2C4=C(CC[C@]23C)C(C)(C)[C@@H]2CC[C@H]4O2)=CC1=O [GYPENSAPOGENIN B] | > 100 | > 100 | > 100
CC(C)=C[C@H]1C=C([C@H]2CC[C@]3(C)[C@@H]2CC[C@@H]2[C@@]4(C)CC[C@H](O)C(C)(C)[C@@H]4CC[C@]23C)C(=O)O1 [GYPENSAPOGENIN D] | > 100 | > 100 | > 100
CC(C)=C1CC=C([C@H]2CC[C@]3(C)[C@@H]2CC[C@@H]2C4=C(CC[C@]23C)C(C)(C)[C@@H]2CC[C@H]4O2)C1=O [GYPENSAPOGENIN A] | 44.4 | > 100 | 71.2
CC(C)=C1CC=C([C@H]2CC[C@]3(C)[C@@H]2CC[C@@H]2[C@@]4(C)CC[C@H](O)C(C)(C)[C@@H]4CC[C@]23C)C1=O [GYPENSAPOGENIN C] | > 100 | 0.58 | 0.11
